This note sets out measurements from ChEMBL document CHEMBL5154822, “Novel inhibitors of AChE and Aβ aggregation with neuroprotective properties as lead compounds for the treatment of Alzheimer's disease” (Eur J Med Chem, 2022).

Activity calls are given as the source filed them. The rule behind the calls is not given here. A value given as a limit tells only on which side of the number the result lay.

Data set [1] deals with SH-SY5Y. The data set is described as follows: Neuroprotective activity in human SH-SY5Y differentiated neuronal cells assessed as inhibition of GA-induced neurite shortening by measuring increase in axon length at 0.5 uM by laser confocal microscope. Format: functional, cell-based.
Data set [2] has as its system Mus musculus. Kind of data set: In vivo inhibition of AChE in ICR mouse cerebral cortex using acetylthiocholine iodide as substrate at 4 mg/kg, ig measured after 1 hr by microplate reader analysis. Format: functional, organism-based.
In data set [3] the target is Acetylcholinesterase (Homo sapiens) (UniProt P22303). Kind of data set: Inhibition of AChE in glyceraldehyde-exposed human SH-SY5Y differentiated neuronal cells using acetylthiocholine as substrate at 50 nM by Ellman's spectrophotometric method. The data set is classed as cell-based. A general note: Ellman's reagent forms a yellow product with free thiols.
Data set [4] shares this target. The data set is described as follows: Inhibition of AChE in human SH-SY5Y differentiated neuronal cells assessed as inhibition of GA-induced tau hyperphosphorylation at Ser396 residue at 10 nM by ELISA. The data set is classed as cell-based. (ELISA stands for enzyme-linked immunosorbent assay.)
In data set [5] the test system is Mus musculus. Kind of data set: In vivo inhibition of AChE in ICR mouse hippocampus using acetylthiocholine iodide as substrate at 4 mg/kg, ig measured after 1 hr by microplate reader analysis. The data set is classed as functional, organism-based.
The test system of data set [6] is SH-SY5Y. The data set is described as follows: Neuroprotective activity in human SH-SY5Y differentiated neuronal cells assessed as inhibition of GA-induced axon morphology defects at 0.5 uM by laser confocal microscope. The data set is classed as functional, cell-based.
Data set [7] concerns SH-SY5Y. The data set is described as follows: Neuroprotective activity in human SH-SY5Y differentiated neuronal cells assessed as inhibition of GA-induced neurite shortening by measuring increase in axon length at 5 uM by laser confocal microscope. Format: functional, cell-based.
Data set [8] relates to Mus musculus. Kind of data set: In vivo inhibition of AChE in ig dosed ICR mouse cerebral cortex using acetylthiocholine iodide as substrate and measured after 1 hr by microplate reader analysis. The data set is classed as functional, organism-based. To be noted: dose 1-4 mg/kg, DDE = dose-dependent effect.
Data set [9] relates to SH-SY5Y. Kind of data set: Neuroprotective activity in human SH-SY5Y differentiated neuronal cells assessed as inhibition of GA-induced axon morphology defects at 5 uM by laser confocal microscope. Format: functional, cell-based.
Data set [10] relates to SH-SY5Y. Kind of data set: Neuroprotective activity in human SH-SY5Y cells assessed as inhibition of okadaic acid-induced mitochondrial dysfunction by measuring increase in red-to-green fluorescence intensity ratio pretreated for 24 hrs followed by okadaic acid addition for 24 hrs by JC-1 dye based fluorescence analysis. The data set is classed as functional, cell-based. To be noted: dose 0.5-5 µM, time 48.0 hrs, DDE = dose-dependent effect.

Data set [11] concerns Mus musculus. The data set is described as follows: In vivo inhibition of AChE in ig dosed ICR mouse hippocampus using acetylthiocholine iodide as substrate and measured after 1 hr by microplate reader analysis. The data set is classed as functional, organism-based. To be noted: dose 1-4 mg/kg, DDE = dose-dependent effect.
In data set [12] the test system is SH-SY5Y. Kind of data set: Antioxidant activity against okadaic acid-induced ROS generation in human SH-SY5Y cells assessed as reduction in DCF fluorescence intensity at 5 uM pretreated for 24 hrs followed by okadaic acid addition for 24 hrs by DCFH-DA dye based fluorescence analysis. Format: functional, cell-based. To be noted: time 48.0 hrs.
Data set [13] has as its system SH-SY5Y. Kind of data set: Neuroprotective activity in human SH-SY5Y differentiated neuronal cells assessed as inhibition of GA-induced cell death by measuring increase in cell viability at 0.5 to 5 uM measured after 24 hrs by MTT assay. Format: functional, cell-based. To be noted: dose 0.5-5 µM. A general note: Tetrazolium dyes change colour on reduction, which living cells bring about.

Data set [14] concerns Mus musculus. The data set is described as follows: Antialzheimer activity against scopolamine-induced cognitive deficit ICR mouse model assessed as improvement in memory impairment by measuring reduction in number of errors at 0.1 to 0.3 mg/kg, ig by step-through passive avoidance test. The data set is classed as functional, organism-based. To be noted: dose 0.1-0.3 mg/kg.

A short description of data set [15]: Cytotoxicity against human SH-SY5Y cells assessed as maximum non-cytotoxic concentration by CellTiter-Glo luminescent assay. The data set is classed as toxicity, cell-based. To be noted: read-out: MNCC.
Data set [16] relates to Mus musculus. The data set is described as follows: In vivo inhibition of AChE in ICR mouse hippocampus using acetylthiocholine iodide as substrate at 10 mg/kg, ig measured after 1 hr by microplate reader analysis. The data set is classed as functional, organism-based.
Data set [17] relates to Mus musculus. The data set is described as follows: In vivo inhibition of AChE in ICR mouse cerebral cortex using acetylthiocholine iodide as substrate at 10 mg/kg, ig measured after 1 hr by microplate reader analysis. The data set is classed as functional, organism-based.
Data set [18] has as its system Mus musculus. The data set is described as follows: Antialzheimer activity against scopolamine-induced cognitive deficit ICR mouse model assessed as improvement in memory impairment by measuring reduction in number of errors at 5 mg/kg, ig by step-through passive avoidance test. The data set is classed as functional, organism-based.
A short description of data set [19]: Ratio of drug concentration in brain to plasma in ICR mouse at 1 mg/kg, ig measured after 2 hrs by LC/MS-MS analysis. Format: ADME, organism-based. To be noted: po, read-out: BPR.
Data set [20] in a line: Drug concentration in ICR mouse brain at 1 mg/kg, ig measured after 1 hr by LC/MS-MS analysis. The data set is classed as ADME, organism-based. To be noted: po, read-out: Ct.
A short description of data set [21]: Ratio of drug concentration in brain to plasma in ICR mouse at 1 mg/kg, ig measured after 0.25 hrs by LC/MS-MS analysis. Format: ADME, organism-based. To be noted: po, read-out: BPR.
Data set [22] in a line: Drug concentration in ICR mouse plasma at 1 mg/kg, ig measured after 2 hrs by LC/MS-MS analysis. The data set is classed as ADME, organism-based. To be noted: po.
The nature of data set [23]: Ratio of drug concentration in brain to plasma in ICR mouse at 1 mg/kg, ig measured after 4 hrs by LC/MS-MS analysis. To be noted: po, read-out: BPR. Format: ADME, organism-based.
Data set [24] can be described thus: Drug concentration in ICR mouse plasma at 1 mg/kg, ig measured after 4 hrs by LC/MS-MS analysis. The data set is classed as ADME, organism-based. To be noted: po.
Data set [25] can be described thus: Drug concentration in ICR mouse brain at 1 mg/kg, ig measured after 0.5 hrs by LC/MS-MS analysis. To be noted: po, read-out: Ct. Format: ADME, organism-based.
Data set [26] can be described thus: Drug concentration in ICR mouse plasma at 1 mg/kg, ig measured after 1 hr by LC/MS-MS analysis. Format: ADME, organism-based. To be noted: po.
Data set [27] in a line: Drug concentration in ICR mouse brain at 1 mg/kg, ig measured after 2 hrs by LC/MS-MS analysis. To be noted: po, read-out: Ct. The data set is classed as ADME, organism-based.
Data set [28] can be described thus: Ratio of drug concentration in brain to plasma in ICR mouse at 1 mg/kg, ig measured after 1 hr by LC/MS-MS analysis. Format: ADME, organism-based. To be noted: po, read-out: BPR.
In data set [29] the target is T1, Acetylcholinesterase (Mus musculus, UniProt P21836).
T1 sequence (P21836 whole entry): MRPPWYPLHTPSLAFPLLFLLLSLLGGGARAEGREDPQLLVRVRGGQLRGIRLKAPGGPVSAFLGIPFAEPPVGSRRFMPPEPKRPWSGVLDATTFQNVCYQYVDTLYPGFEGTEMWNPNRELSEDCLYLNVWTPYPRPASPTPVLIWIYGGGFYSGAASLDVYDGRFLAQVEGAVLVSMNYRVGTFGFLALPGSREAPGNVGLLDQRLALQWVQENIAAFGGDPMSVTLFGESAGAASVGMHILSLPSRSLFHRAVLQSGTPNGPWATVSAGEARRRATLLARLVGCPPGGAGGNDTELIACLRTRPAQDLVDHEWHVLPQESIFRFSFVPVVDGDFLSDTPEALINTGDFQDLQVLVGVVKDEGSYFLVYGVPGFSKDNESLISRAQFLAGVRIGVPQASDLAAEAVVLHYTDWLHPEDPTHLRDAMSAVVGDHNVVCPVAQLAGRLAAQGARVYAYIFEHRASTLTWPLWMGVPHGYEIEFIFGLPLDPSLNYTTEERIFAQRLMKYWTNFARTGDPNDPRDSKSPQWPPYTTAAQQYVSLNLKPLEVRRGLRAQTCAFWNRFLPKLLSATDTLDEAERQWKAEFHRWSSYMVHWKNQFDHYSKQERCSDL
The data set is described as follows: Mixed-type inhibition of AChE in mouse cerebral cortex using acetylthiocholine iodide as substrate by double reciprocal Lineweaver-Burk plot analysis. Format: tissue-based.

The target of data set [30] is T1, Acetylcholinesterase. Kind of data set: Inhibition of AChE in mouse cerebral cortex using acetylthiocholine iodide as substrate preincubated for 10 mins followed by substrate addition and measured for 180 secs by Ellman's spectrophotometric method. Format: tissue-based.
The nature of data set [31]: Drug concentration in ICR mouse brain at 1 mg/kg, ig measured after 4 hrs by LC/MS-MS analysis. Format: ADME, organism-based. To be noted: po, read-out: Ct.
Data set [32] can be described thus: Drug concentration in ICR mouse plasma at 1 mg/kg, ig measured after 0.5 hrs by LC/MS-MS analysis. The data set is classed as ADME, organism-based. To be noted: po.
The nature of data set [33]: Drug concentration in ICR mouse plasma at 1 mg/kg, ig measured after 0.25 hrs by LC/MS-MS analysis. The data set is classed as ADME, organism-based. To be noted: po.
The nature of data set [34]: Ratio of drug concentration in brain to plasma in ICR mouse at 1 mg/kg, ig measured after 0.5 hrs by LC/MS-MS analysis. To be noted: po, read-out: BPR. Format: ADME, organism-based.
Data set [35] is described as follows: Drug concentration in ICR mouse brain at 1 mg/kg, ig measured after 0.25 hrs by LC/MS-MS analysis. The data set is classed as ADME, organism-based. To be noted: po, read-out: Ct.
Data set [36] has as its target Cytochrome P450 2D6 (Homo sapiens, UniProt P10635). The data set is described as follows: Inhibition of CYP2D6 in human liver microsomes using dextromethorphan as substrate preincubated for 10 mins followed by NADPH addition and measured after 10 mins by LC-MS/MS analysis. The data set is classed as ADME, Microsome.
A short description of data set [37]: Inhibition of CYP3A4 in human liver microsomes using midazolam as substrate preincubated for 10 mins followed by NADPH addition and measured after 10 mins by LC-MS/MS analysis. Format: ADME, Microsome.
Data set [38] in a line: Inhibition of CYP3A4 in human liver microsomes using testosterone as substrate preincubated for 10 mins followed by NADPH addition and measured after 10 mins by LC-MS/MS analysis. The data set is classed as ADME, Microsome.
Data set [39] deals with Cytochrome P450 2C9 (Homo sapiens, UniProt P11712). The data set is described as follows: Inhibition of CYP2C9 in human liver microsomes using diclofenac as substrate preincubated for 10 mins followed by NADPH addition and measured after 10 mins by LC-MS/MS analysis. Format: ADME, Microsome.
Cytochrome P450 2C9, sequence (P11712 whole entry): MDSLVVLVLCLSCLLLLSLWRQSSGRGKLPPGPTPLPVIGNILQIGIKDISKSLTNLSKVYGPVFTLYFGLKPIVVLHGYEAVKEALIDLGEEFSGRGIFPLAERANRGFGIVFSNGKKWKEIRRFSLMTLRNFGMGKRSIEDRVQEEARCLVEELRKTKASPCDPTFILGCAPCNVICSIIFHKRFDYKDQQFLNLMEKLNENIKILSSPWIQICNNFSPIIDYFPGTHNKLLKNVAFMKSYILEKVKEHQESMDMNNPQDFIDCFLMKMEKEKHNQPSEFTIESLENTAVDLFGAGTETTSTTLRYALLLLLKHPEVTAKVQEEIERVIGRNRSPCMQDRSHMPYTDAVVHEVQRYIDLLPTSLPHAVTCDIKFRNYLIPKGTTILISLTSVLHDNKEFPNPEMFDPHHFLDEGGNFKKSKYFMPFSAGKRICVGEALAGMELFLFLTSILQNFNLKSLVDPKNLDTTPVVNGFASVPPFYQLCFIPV

Acetylcholinesterase (Homo sapiens), sequence (P22303 whole entry): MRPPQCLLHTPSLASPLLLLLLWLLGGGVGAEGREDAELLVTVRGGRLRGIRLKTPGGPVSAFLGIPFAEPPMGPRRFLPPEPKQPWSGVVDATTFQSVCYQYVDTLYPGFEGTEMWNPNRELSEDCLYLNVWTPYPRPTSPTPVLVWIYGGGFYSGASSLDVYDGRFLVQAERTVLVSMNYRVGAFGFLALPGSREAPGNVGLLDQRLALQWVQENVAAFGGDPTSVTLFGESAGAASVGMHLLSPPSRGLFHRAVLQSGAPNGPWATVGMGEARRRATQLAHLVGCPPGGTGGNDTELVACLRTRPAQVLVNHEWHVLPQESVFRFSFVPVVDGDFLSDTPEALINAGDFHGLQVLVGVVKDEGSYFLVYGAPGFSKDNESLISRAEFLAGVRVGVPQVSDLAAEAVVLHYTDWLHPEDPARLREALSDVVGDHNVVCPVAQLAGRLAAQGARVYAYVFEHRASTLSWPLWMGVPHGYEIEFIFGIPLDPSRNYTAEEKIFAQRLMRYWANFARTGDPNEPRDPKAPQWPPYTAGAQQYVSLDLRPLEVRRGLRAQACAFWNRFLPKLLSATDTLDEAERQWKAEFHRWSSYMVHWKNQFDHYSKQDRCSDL
Cytochrome P450 2D6, sequence (P10635 whole entry): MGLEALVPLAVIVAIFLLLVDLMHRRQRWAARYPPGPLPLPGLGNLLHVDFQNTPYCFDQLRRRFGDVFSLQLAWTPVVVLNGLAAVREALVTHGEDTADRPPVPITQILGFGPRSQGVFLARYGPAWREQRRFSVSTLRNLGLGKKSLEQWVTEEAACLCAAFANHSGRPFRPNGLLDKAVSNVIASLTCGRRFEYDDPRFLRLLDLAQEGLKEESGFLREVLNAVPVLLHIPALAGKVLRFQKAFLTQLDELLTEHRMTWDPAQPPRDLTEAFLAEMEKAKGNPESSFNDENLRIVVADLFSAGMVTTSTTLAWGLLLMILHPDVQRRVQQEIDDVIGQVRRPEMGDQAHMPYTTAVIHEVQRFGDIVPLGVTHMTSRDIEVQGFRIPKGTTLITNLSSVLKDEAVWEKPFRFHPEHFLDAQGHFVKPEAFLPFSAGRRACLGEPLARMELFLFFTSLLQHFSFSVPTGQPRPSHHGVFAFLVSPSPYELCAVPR

For `COc1cc2c(cc1OC)S(=O)(=O)C(F)(CC1CCN(Cc3cccc(F)c3)CC1)C2` (stereo not given) [listing 1 of 3 here], the outcome in [1], in [6], in data set [7], in data set [9], in [12] and in [13] was Active. In data set [14], the outcome was Active. For the same compound, the inhibition entry in [2], in [3], in data set [4] and in data set [5] was “Active” throughout. Also, the inhibition result in data set [8] and in data set [11] was “Dde” throughout. In addition, in data set [10], the Activity entry was “Dde”.
Turning to `COc1cc2c(cc1OC)C(=O)C(CC1CCN(Cc3ccccc3)CC1)C2` (stereo not given) [DONEPEZIL], the outcome in [1], in data set [6], in data set [18], in data set [12] and in [13] was Active. Besides, the MNTC in data set [15] came to 100 µM. Besides, the inhibition result in [16] and in data set [17] was “Active” throughout. Moreover, in data set [10], the Activity result is “Dde”.
One may read the Ki as a dissociation constant, usually derived from enzyme kinetics or from competition with a known ligand. One may read the IC50 as the point on the concentration scale where inhibition reaches its midpoint. In the case of `COc1cc2c(cc1OC)S(=O)(=O)C(F)(CC1CCN(Cc3cccc(F)c3)CC1)C2` (stereo not given) [listing 2 of 3 here], the Kp at 2 h in data set [19] stood at 8.4. Also, the concentration at 1 h is 21.9 ng/mL in data set [20] and 3.48 ng/mL in data set [26]. Also, in data set [21], the Kp at 0.25 h was 4.17. The concentration at 2 h came to 2.59 ng/mL in data set [22] and 21.8 ng/mL in [27]. Moreover, the Kp at 4 h in data set [23] was determined as 8.47. The concentration at 4 h in data set [24] is 2.7 ng/mL; in data set [31] it was 21.7 ng/mL. Further, in data set [15], the MNTC came to 10 µM. Moreover, the concentration at 0.5 h in [25] is 18.1 ng/mL; in data set [32], 3.42 ng/mL. In data set [28], the Kp at 1 h is 6.33. In [29], this compound registered a Ki of 0.0004 µM. Besides, the IC50 in [30] amounted to 0.0024 µM. In addition, the results for the concentration at 0.25 h in data set [33] and in data set [35] were 2.89 ng/mL and 10.6 ng/mL, respectively. Further, the Kp at 0.5 h in data set [34] amounted to 5.24.
Take `COc1cc2c(cc1OC)S(=O)(=O)C(F)(CC1CCN(Cc3cccc(F)c3)CC1)C2` (stereo not given) [listing 3 of 3 here]: the IC50 in data set [36], in data set [37], in [38] and in [39] was > 20 µM in each case.
